Measurements published in US11486880B2, “Method of measuring harshness of a surfactant” (Conopeo, Inc., priority 2018, dated 2022).

Tested on: Zein protein
Experiment: Harshness of surfactant by dye release from solid Zein protein-Coomassie Blue R dye complex (CIE L*a*b colour change)
Parameters: species or system corn
Settings: 10 wt % surfactant dilution; disc of protein-dye complex soaked 15 minutes; decrease in b* between first and second colour measurement; lower b = harsher; three replicates
Description: Zein powder (10 wt %) and Coomassie Blue R dye (0.1%) were added to a glass jar, and made up to 100 wt % with 90:10 aqueous ethanol (90 ethanol: 10 water). The mixture was left to disperse with stirring for 12 hours to produce protein-dye complex solution.
2 g of the protein-dye complex solution was added to four petri dishes and dried overnight under ambient conditions. The dried discs of protein-dye complex were then removed from the petri dishes and stored until required.
Dilutions (10 wt %) of four surfactants were prepared and a first colour measurement of each dilution was taken using CIEL*a*b on a Konica Minolta spectrometer.
A disc of protein-dye complex was added to each surfactant dilution, and soaked for 15 minutes. A second colour measurement was obtained of the resulting solutions. The decrease in b* value between the first and second colour measurement indicated the increase in blue colour. The lower the b value the ‘bluer’ the sample and the harsher the formulation. Three samples from each surfactant solution were measured as replicates.

Average Δb* | SMILES
−11.2625 | CCCCCCCCCCO[C@@H]1O[C@H](CO)[C@@H](O)[C@H](O)[C@H]1O [Decyl Glucoside]
−49.465 | CCCCCCCCCCCCOS(=O)(=O)[O-].[Na+] [SDS]
